Each structure is given as a SMILES string.

The values below come from ChEMBL document CHEMBL1121624, “Synthesis, biological evaluation, and preliminary structure-activity considerations of a series of alkylphenols as intravenous anesthetic agents” (J Med Chem, 1980).

Data set [1] is described as follows: Acute toxicity measured as median lethal dose in mice; […]. It is filed as organism-based. As to conditions: mouse, in vivo.
For data set [2], the species on record is Mus musculus. The data set is described as follows: Hypnotic activity was measured as dose which causes loss of righting reflex for a minimum period of 30s in 50% of mice. The format is functional.
The species entered for data set [3] is Mus musculus. The data set is described as follows: Acute toxicity measured as median lethal dose in mice; Range is 80-90. It is filed as organism-based. The settings on record: in vivo.
The nature of a further data set: in vivo. The settings on record: mouse.
For data set [4], the species on record is Mus musculus. The experiment in a line: Speed of induction of analgesia in mice was determined; I = immediate, <10 s. It is filed as functional, organism-based.
For data set [5], the species on record is Mus musculus. The experiment in a line: Duration of analgesic action in mice was determined; B = brief, < 5 min. The format is functional, organism-based.
The species named for data set [6] is Mus musculus. The data set is described as follows: Hypnotic activity was measured as dose which causes loss of righting reflex for a minimum period of 30s in 50% of mice; Range is 5-10. It is filed as functional.
The species named for data set [7] is Mus musculus. The experiment in a line: Hypnotic activity was measured as dose which causes loss of righting reflex for a minimum period of 30s in 50% of mice; Range is 1-1.5. The format is functional.
Data set [8] is described as follows: Acute toxicity measured as median lethal dose in mice; Range is 40-45. The format is organism-based. The settings on record: mouse, in vivo.
A short description of data set [9]: Acute toxicity measured as median lethal dose in mice; Range is 140-160. The format is organism-based. The settings on record: mouse, in vivo.
For data set [10], the species on record is Mus musculus. The data set is described as follows: Speed of induction of analgesia in mice was determined; VS = very slow, > 15s. It is filed as functional, organism-based.
Data set [11] is filed under the species Mus musculus. The data set is described as follows: Hypnotic activity was measured as dose which causes loss of righting reflex for a minimum period of 30s in 50% of mice; Range is 30-40. The format is functional.
The species entered for data set [12] is Mus musculus. The data set is described as follows: Hypnotic activity was measured as dose which causes loss of righting reflex for a minimum period of 30s in 50% of mice; Range is 60-80. It is filed as functional.
Data set [13] is described as follows: Acute toxicity measured as median lethal dose in mice. The format is organism-based. The settings on record: mouse, in vivo.

The term LD50 denotes the dose expected to kill half of the subjects tested. `Cc1cc(C(C)(C)C)ccc1O`: in data set [1], the LD50 worked out at 180 mg/kg. In addition, the HD50 in the data set filed under Mus musculus [2] is 80 mg/kg.

As for `CCCC(C)C1(CC)C(=O)[N-]C(=S)NC1=O.[Na+]` (stereo in doubt; form 1) [THIOPENTAL SODIUM], in the data set filed under Mus musculus [3], the LD50 turned out to be 80 mg/kg.

Consider `CC(C)c1cccc(C(C)C)c1O` [PROPOFOL], for which the LD50 in the data set “in vivo” was 50 mg/kg. Moreover, in the data set filed under Mus musculus [4], the Speed of induction entry is “Immediate induction”. Further, in the data set filed under Mus musculus [5], the Duration of action result is recorded as “Brief duration”. Also, the HD50 in the data set filed under Mus musculus [6] amounted to 5 mg/kg.

In the case of `CCOC(=O)c1cncn1[C@H](C)c1ccccc1` [ETOMIDATE], the HD50 in the data set listed under Mus musculus [7] was 1 mg/kg. Further, in the data set listed under Mus musculus [4], the Speed of induction result is on record as “Immediate induction”. In addition, in the data set listed under Mus musculus [5], the Duration of action result was “Brief duration”. The LD50 in data set [8] amounted to 40 mg/kg.

The compound `Cc1cccc(C2CCCCC2)c1O` returned an LD50 in [9] of 140 mg/kg. Moreover, the Speed of induction result in the data set filed under Mus musculus [10] is on record as “Very slow”. The Duration of action entry in the data set filed under Mus musculus [5] is “Brief duration”. In addition, the HD50 in the data set listed under Mus musculus [11] was 30 mg/kg.

With `CCc1c(C)cc(C)c(CC)c1O`, the HD50 in the data set listed under Mus musculus [12] was 60 mg/kg. The compound also returned an LD50 in [13] of 160 mg/kg.
